Source: ChEMBL document CHEMBL1201862, “PubChem BioAssay data set” (2004)
Activity calls are given as the source filed them.

Key:
[1] = target: Genome polyprotein (dengue virus type 2, UniProt P29990); assay: Dengue-2 NS5 methyltransferase inhibitors, primary screen, biochemical, confirmation dose response (AID 588689); format: functional
[2] = inhibitors of intracellular T. cruzi replication, confirmation, NIH3T3 host cells, beta-gal luminescence (AID 2044); format: functional, cell-based;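 further: intracellular parasites grown in NIH/3T3 mouse fibroblasts as host cells; luminescent beta-galactosidase reporter signal from transgenic T. cruzi replicating inside host cells; inhibitors lower the luminescence signal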
[3] = cytotoxicity toward NIH3T3 fibroblasts, dose response, counter-screen, cell-based, ATP luminescence, mouse fibroblasts (AID 2010); format: functional;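 further: cells exposed to compound for about 90 hours before reading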
[4] = THP-1 cell cytotoxicity, dose response, cytotoxicity control for non-replicating M. tuberculosis project (AID 489025); format: functional
[5] = cells; format: functional
[6] = target: Estrogen receptor beta (Homo sapiens, UniProt Q92731);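 further: recombinant ER-beta bound to coactivator SRC1 peptide in presence of estradiol agonist; inhibitors block coactivator peptide binding and lower the FRET signal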
Chain of Estrogen receptor beta (Q92731 whole entry): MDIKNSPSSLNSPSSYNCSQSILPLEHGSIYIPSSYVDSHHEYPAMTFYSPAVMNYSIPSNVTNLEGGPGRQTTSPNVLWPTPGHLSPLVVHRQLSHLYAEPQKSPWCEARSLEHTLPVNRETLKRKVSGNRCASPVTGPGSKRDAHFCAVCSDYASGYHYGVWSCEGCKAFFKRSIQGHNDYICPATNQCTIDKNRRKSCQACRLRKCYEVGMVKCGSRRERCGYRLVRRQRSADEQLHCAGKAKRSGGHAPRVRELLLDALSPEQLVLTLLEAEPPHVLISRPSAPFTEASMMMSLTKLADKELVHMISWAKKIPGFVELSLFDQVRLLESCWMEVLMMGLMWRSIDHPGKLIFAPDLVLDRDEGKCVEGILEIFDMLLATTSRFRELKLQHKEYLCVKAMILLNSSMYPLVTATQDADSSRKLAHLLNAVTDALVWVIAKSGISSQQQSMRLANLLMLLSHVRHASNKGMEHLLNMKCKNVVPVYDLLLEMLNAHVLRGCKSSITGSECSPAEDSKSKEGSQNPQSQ

[7] = target: Glyceraldehyde-3-phosphate dehydrogenase (Homo sapiens, UniProt P04406)
Chain of Glyceraldehyde-3-phosphate dehydrogenase (P04406 whole entry): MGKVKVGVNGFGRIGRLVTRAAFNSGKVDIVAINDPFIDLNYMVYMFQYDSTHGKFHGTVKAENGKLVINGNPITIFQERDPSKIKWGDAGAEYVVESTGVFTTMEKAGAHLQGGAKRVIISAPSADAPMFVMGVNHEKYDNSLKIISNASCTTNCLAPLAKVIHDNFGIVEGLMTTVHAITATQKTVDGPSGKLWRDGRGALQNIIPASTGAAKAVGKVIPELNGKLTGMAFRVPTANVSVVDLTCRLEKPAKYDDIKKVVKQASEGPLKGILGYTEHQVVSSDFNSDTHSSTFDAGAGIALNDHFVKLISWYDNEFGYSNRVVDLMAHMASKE

[8] = THP-1 cell cytotoxicity, dose response, cytotoxicity control for Vif-APOBEC3G degradation inhibitor project, THP-1 cells (AID 1117359); format: functional; conditions: Human immunodeficiency virus 1, THP-1
[9] = intracellular Trypanosoma cruzi inhibitors in host cells – cell-based, plate reader, cherry-pick samples, set 3, dose response (AID 651818); format: functional;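 further: compounds incubated with infected cells for about four days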
[10] = test system: CHO; assay: cytotoxicity in TLR9-MyD88 CHO cells, dose response, cytotoxicity control for TLR9-MyD88 binding inhibitor project, cell-based, luminescence (AID 588339); format: functional, hamster; conditions: Cricetulus griseus;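 further: CHO cells stably coexpressing TLR9 and MyD88 fusions from primary screen; compound exposure lasted 48 hours before viability readout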
[11] = target: Beta Lactamase (Pseudomonas aeruginosa, UniProt Q932Y6); assay: beta-lactamase reporter inhibitor potency, dose response, artefact control for TLR9-MyD88 binding inhibitor project, BLA reporter cells, FRET fluorescence (AID 588341); format: cell-based;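 further: cell based assay in CHO-K1 cells stably expressing beta-lactamase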
Chain of Beta Lactamase (Q932Y6 whole entry): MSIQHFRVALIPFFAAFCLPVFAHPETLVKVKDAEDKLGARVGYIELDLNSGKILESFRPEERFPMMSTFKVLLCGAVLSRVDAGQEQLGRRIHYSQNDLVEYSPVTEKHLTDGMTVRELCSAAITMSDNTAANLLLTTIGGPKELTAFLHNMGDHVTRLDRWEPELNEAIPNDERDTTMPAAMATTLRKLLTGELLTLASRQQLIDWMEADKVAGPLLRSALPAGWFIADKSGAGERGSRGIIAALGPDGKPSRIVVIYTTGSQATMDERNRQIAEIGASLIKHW

[12] = target: T1, Leucine aminopeptidase (Plasmodium falciparum 3D7, UniProt Q8IL11); assay: P. falciparum M17LAP inhibitors, primary screen, biochemical, fluorogenic H-Leu-NHMec substrate, 1536-well (AID 1619); format: functional
T1 sequence (Q8IL11 whole entry): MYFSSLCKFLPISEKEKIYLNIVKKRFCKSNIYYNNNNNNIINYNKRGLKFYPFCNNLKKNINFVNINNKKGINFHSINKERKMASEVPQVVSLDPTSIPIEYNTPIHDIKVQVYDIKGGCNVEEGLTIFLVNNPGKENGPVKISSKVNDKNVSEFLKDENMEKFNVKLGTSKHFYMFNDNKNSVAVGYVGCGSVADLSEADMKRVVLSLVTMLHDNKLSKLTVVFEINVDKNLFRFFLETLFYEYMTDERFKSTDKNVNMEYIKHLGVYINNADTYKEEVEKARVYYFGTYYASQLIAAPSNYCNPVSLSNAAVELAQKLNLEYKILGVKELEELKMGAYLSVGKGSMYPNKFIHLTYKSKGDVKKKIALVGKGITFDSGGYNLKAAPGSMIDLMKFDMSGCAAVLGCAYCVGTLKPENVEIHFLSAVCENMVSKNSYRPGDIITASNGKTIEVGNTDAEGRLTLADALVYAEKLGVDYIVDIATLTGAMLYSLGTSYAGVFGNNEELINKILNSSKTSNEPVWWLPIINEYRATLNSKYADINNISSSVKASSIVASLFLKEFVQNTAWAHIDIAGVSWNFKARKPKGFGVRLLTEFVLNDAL

[13] = microbe, parasite or virus in culture; format: functional; conditions: Mycobacterium tuberculosis
[14] = target: T2, Polyadenylate-binding protein 1 (Homo sapiens, UniProt P11940); assay: PABP1 MLLE–PAM2 interaction inhibitors, dose response, miRNA deadenylation inhibitor project, biochemical, fluorescence polarization, Cy5-PAM2 peptide, secondary (AID 602260); format: functional; conditions: read-out: IC50_Mean
T2 sequence (P11940 whole entry): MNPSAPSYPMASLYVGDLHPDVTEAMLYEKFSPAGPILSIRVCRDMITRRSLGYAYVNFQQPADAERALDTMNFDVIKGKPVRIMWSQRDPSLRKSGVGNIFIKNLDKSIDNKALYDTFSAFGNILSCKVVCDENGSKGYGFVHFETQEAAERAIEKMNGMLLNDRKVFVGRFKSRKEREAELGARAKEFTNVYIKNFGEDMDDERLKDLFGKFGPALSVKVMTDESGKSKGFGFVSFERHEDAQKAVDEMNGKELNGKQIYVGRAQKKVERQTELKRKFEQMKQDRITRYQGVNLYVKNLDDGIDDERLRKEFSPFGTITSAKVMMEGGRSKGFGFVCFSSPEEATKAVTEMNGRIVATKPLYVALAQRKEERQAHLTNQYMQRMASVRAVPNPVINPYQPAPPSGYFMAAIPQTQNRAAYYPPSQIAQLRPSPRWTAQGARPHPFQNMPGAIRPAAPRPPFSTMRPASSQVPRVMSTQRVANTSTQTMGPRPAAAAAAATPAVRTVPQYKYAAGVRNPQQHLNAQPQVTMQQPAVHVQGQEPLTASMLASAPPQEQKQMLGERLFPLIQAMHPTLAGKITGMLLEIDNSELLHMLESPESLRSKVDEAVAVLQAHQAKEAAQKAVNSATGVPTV

[15] = target: T2, Polyadenylate-binding protein 1; assay: PABP1 MLLE–PAM2 binding inhibitor potency, dose response, biochemical, fluorescence polarization, FITC-PAM2 peptide (AID 602259); format: functional; conditions: read-out: IC50_Mean
[16] = target: Cytochrome P450 2C19 (Homo sapiens, UniProt P33261); assay: Cytochrome panel assay with activity outcomes. Panel member name: p450-cyp2c19 Compounds with AC50 equal or less than 10 uM are considered active; format: functional
Chain of Cytochrome P450 2C19 (P33261 whole entry): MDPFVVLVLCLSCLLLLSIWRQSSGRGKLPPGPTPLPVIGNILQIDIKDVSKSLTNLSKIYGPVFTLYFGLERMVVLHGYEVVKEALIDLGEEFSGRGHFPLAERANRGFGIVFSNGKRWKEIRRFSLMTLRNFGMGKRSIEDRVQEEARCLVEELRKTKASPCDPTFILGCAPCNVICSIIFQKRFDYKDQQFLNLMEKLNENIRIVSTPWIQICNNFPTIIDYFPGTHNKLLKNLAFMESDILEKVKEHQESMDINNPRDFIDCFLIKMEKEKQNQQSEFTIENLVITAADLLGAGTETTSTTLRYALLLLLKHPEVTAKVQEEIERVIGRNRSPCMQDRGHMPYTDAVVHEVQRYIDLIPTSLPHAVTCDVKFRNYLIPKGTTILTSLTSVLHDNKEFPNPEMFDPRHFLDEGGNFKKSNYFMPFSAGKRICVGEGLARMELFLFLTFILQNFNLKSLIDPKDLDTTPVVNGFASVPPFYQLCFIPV

[17] = target: Cytochrome P450 3A4 (Homo sapiens, UniProt P08684);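 further: CYP3A4 tested as one member of a cytochrome P450 panel screen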
Chain of Cytochrome P450 3A4 (P08684 whole entry): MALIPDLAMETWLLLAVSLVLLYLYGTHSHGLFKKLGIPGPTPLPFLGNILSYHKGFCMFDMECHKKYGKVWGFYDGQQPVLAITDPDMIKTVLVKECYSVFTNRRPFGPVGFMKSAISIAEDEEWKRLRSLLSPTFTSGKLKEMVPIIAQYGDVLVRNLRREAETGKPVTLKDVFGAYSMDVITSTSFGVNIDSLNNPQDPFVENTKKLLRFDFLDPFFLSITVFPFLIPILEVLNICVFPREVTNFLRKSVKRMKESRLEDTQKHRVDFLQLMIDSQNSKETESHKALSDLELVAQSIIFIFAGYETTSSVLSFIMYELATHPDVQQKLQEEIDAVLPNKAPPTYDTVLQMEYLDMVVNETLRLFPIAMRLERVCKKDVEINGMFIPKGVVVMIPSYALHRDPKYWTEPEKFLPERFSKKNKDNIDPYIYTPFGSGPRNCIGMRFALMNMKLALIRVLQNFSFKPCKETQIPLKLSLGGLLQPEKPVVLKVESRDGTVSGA

[18] = target: Cytochrome P450 2C9 (Homo sapiens, UniProt P11712)
Chain of Cytochrome P450 2C9 (P11712 whole entry): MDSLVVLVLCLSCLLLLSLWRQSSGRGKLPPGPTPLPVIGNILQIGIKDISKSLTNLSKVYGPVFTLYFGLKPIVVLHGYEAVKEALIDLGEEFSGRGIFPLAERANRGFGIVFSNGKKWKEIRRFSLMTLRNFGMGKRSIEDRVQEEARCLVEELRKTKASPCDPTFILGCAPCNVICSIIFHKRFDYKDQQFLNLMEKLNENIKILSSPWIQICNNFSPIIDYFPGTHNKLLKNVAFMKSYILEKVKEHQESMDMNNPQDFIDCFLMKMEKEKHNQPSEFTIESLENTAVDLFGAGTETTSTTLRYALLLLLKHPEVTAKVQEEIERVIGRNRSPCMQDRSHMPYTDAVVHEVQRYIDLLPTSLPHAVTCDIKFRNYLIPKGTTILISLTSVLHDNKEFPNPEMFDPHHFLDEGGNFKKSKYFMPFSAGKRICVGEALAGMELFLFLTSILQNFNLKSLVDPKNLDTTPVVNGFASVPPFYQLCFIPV

[19] = target: T3, Replicative DNA helicase DnaB (Mycobacterium tuberculosis, UniProt P9WMR3); assay: DnaB intein splicing inhibitors, dose response, biochemical, cell-free fluorescence (AID 449749); format: functional
T3 sequence (P9WMR3 whole entry): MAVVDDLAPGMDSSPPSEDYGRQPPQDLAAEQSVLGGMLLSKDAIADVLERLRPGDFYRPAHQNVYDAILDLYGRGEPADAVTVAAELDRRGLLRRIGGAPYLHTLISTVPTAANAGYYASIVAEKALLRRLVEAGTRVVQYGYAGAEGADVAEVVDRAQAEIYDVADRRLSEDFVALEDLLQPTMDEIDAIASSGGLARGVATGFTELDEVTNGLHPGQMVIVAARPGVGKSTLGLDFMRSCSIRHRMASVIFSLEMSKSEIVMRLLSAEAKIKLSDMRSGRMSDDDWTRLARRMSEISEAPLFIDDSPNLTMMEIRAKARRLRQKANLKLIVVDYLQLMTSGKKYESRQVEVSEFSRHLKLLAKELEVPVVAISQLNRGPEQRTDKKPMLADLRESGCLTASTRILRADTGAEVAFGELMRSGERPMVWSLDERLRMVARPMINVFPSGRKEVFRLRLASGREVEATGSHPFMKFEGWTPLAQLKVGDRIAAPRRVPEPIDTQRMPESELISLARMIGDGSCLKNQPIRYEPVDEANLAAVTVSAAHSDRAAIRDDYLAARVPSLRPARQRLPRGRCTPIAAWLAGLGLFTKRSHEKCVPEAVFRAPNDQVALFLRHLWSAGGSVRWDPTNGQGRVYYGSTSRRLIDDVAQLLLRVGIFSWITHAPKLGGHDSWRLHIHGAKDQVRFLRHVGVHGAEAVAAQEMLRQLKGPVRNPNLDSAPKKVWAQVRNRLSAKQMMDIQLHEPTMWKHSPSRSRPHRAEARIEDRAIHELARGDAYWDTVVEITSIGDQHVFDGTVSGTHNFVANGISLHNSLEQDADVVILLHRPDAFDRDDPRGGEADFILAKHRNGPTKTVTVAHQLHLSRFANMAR

[20] = target: T4, Protein RecA (Mycobacterium tuberculosis, UniProt P9WHJ3); assay: Fluorescence Cell-Free Homogeneous Dose Retest to Identify Inhibitors of RecA-Intein Splicing Activity. [Related pubchem assays (depositor defined):AID2097, AID2223, AID489010, AID492950]; format: functional
T4 sequence (P9WHJ3 whole entry): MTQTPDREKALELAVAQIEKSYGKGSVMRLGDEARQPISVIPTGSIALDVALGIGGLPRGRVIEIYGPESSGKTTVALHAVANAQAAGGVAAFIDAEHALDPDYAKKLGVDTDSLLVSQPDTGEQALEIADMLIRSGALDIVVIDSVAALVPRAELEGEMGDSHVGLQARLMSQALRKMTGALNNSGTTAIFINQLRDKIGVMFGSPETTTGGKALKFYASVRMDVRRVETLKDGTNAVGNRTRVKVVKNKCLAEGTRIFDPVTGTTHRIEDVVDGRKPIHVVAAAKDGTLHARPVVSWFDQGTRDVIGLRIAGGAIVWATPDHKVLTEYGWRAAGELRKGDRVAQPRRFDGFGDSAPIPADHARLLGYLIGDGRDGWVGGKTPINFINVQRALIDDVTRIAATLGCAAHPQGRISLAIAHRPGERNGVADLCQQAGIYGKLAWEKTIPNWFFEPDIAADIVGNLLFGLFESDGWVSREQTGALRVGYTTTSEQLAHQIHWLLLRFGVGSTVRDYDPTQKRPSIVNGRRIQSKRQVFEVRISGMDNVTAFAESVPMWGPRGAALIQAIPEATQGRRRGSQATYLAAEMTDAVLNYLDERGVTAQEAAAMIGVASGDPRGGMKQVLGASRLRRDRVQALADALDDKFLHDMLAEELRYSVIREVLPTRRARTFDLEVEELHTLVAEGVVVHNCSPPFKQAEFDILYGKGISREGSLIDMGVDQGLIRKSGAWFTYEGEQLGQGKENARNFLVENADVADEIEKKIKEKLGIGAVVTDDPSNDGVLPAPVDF

[21] = target: T5, Corticotropin-releasing factor receptor 2/Corticotropin-releasing factor-binding protein (Homo sapiens, UniProt P24387+Q13324); assay: activators of CRF receptor 2 with binding protein – uHTS hits, confirmation (AID 602473); format: functional; conditions: read-out: EC50_Mean
T5 sequence (Q13324 whole entry): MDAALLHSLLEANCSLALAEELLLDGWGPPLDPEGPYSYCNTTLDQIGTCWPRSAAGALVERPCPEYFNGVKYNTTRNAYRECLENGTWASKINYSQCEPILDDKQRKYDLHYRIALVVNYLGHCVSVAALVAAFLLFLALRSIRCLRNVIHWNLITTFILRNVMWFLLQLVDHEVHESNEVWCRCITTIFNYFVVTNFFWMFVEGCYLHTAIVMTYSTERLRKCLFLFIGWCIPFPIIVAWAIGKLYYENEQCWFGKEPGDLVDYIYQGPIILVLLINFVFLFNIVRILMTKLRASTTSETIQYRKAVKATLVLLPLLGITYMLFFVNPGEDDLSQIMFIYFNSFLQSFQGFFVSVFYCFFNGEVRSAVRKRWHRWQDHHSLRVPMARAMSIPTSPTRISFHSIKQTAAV
T5 sequence (P24387 whole entry): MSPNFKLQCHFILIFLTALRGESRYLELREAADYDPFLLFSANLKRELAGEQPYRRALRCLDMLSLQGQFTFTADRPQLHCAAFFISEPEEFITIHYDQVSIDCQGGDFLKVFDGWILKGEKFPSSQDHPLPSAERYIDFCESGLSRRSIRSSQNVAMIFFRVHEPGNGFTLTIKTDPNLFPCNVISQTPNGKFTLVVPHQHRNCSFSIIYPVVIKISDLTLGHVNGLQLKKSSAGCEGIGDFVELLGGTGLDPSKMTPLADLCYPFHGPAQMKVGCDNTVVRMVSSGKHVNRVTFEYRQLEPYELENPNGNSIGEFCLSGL

Chain of Genome polyprotein (P29990 2492-3391 limits assumed): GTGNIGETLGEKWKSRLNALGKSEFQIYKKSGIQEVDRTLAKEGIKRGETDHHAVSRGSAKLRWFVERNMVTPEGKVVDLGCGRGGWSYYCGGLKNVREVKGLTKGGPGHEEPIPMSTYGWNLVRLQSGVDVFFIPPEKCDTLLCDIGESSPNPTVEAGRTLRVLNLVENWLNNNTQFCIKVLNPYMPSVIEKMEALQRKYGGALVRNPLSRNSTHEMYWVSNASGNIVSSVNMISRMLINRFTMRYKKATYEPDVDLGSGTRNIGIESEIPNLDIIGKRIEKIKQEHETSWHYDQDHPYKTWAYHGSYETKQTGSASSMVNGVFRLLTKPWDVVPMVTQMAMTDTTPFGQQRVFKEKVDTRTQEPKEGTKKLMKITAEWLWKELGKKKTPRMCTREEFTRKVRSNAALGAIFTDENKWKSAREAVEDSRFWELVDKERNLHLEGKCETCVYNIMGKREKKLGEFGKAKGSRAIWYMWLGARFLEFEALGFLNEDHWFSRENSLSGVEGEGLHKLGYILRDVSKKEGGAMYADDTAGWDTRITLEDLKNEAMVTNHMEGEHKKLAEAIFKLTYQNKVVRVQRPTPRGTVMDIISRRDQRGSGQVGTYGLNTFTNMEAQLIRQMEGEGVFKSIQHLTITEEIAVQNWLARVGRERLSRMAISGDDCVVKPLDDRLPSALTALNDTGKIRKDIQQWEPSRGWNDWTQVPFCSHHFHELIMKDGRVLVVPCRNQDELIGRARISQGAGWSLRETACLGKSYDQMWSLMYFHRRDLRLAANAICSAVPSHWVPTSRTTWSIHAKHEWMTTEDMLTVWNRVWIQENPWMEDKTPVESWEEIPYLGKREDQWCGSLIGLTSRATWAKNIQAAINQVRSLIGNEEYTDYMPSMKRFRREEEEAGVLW

## O=C(O)c1cc([N+](=O)[O-])c(Nc2cccc3ccccc23)c([N+](=O)[O-])c1
[1]
  IC50: 64.7 µM (active)

## Cc1cc(C)n(CC(=O)N/N=C/c2ccc([N+](=O)[O-])s2)n1
[2]
  EC50: 0.845 µM (active)
[3]
  EC50: > 60 µM (not active)
[4]
  CC50: > 40 µM (active)
[5]
  IC50: 48.5 µM (active)

## N#Cc1cc2c(=O)n3ccccc3nc2n(CCCn2ccnc2)c1=N
[6]
  IC50: > 50 µM (not active)

## O=C(O)CCCCC(=O)c1ccc(CC(=O)O)s1
[7]
  IC50: > 100 µM (not active)

## COc1ccccc1-c1c(C)nn2c(O)c(Cc3ccccc3)c(C)nc12
[8]
  CC50: > 40 µM (active)

## C[C@H](CO)N1C[C@H](C)[C@@H](CN(C)CC2CC2)Oc2c(NC(=O)CCCCCC(=O)Nc3ccccc3N)cccc2C1=O
[9]
  AC50: 2.88 µM (active)

## COc1ccc(OC)c(C=Cc2ccc([N+](=O)[O-])cc2)c1
[10]
  IC50: > 49.7 µM (inactive)
[11]
  IC50: 8.19 µM (active)

## CCOc1ccc(C(=O)CN2CCN(S(=O)(=O)c3ccc(OC)cc3)CC2)cc1
[12]
  IC50: 73.5 µM (active)

## Cc1ccc(S(=O)(=O)NC(CC(C)C)C(=O)N2CCN(C/C=C/c3ccccc3)CC2)cc1 (stereo not given)
[13]
  CC50: > 40 µM (active)
[8]
  CC50: > 40 µM (active)

## C[C@@H]1CCCCO[C@@H](CN(C)CC2CCCCC2)[C@@H](C)CN([C@H](C)CO)C(=O)c2cc(NC(=O)Nc3ccc(C(F)(F)F)cc3)ccc2O1
[9]
  AC50: 1.63 µM (active)

## CCC(=O)NC(=S)Nc1c(C)cc(Br)cc1C
[14]
  IC50: > 66 µM (inactive)
[15]
  IC50: > 66 µM (inactive)

## C[C@H]1CN([C@@H](C)CO)C(=O)c2cccc(NC(=O)Nc3cccc4ccccc34)c2O[C@H]1CN(C)Cc1ccc(C(F)(F)F)cc1
[9]
  AC50: 2.85 µM (active)

## C[C@@H]1CN([C@H](C)CO)C(=O)c2cccc(NC(=O)CCCCCC(=O)Nc3ccccc3N)c2O[C@@H]1CN(C)S(=O)(=O)c1ccc(F)cc1
[9]
  AC50: 3.66 µM (active)

## CC1(C(=O)O)CC(C)(C(=O)O)CC(C)(C(=O)O)C1 (stereo not given)
[12]
  IC50: 58.7 µM (active)

## Clc1ccc(-c2nc3cnccn3c2Nc2ccc3c(c2)OCO3)cc1
[8]
  CC50: 19.9 µM (active)

## O=C1NC(=S)N/C1=C\c1ccc(-c2cc([N+](=O)[O-])ccc2Br)o1
[7]
  IC50: > 100 µM (not active)

## CS(=O)(=O)c1cccc(C(=O)Nc2nnc(C3=COCCO3)o2)c1
[14]
  IC50: > 66 µM (inactive)
[15]
  IC50: > 66 µM (inactive)

## COc1ccc(-n2c(SC)nc(O)c(Cc3ccccc3)c2=O)cc1
[12]
  IC50: 46 µM (active)
[16]
  AC50: 7.94 µM (inconclusive)
[17]
  AC50: 22.4 µM (inconclusive)
[18]
  AC50: 12.6 µM (inconclusive)

## Cc1[nH]n(-c2ccccc2)c(=O)c1Sc1ccc(Cl)cc1
[12]
  IC50: 37.4 µM (active)
[6]
  IC50: > 50 µM (not active)
[19]
  AC50: 12.2 µM (active)
[20]
  EC50: 4.68 µM (active)

## O=C1C(Cl)=C(N2CCN(CCO)CC2)C(=O)N1c1cccc(C(F)(F)F)c1
[7]
  IC50: > 50 µM (inconclusive)

## COC(=O)c1scc2c(O)cc(C(F)(F)F)nc12
[14]
  IC50: > 66 µM (inactive)
[15]
  IC50: 35.7 µM (inactive)
[21]
  EC50: 5.75 µM (active)

## O=C(NNC(=O)C1CC2CCC1C2)c1sc2ccccc2c1Cl (stereo not given)
[12]
  IC50: 68.1 µM (active)

## COc1ccc(CCN(C)C(=O)COC(=O)/C=C/c2ccc(C)o2)cc1OC
[8]
  CC50: > 40 µM (active)

## COc1cccc(/C=C2\SC(N)=NC2=O)c1OS(=O)(=O)c1ccccc1
[8]
  CC50: > 40 µM (active)

## C[C@H](CO)N1C[C@H](C)[C@H](CN(C)Cc2ccc(Cl)c(Cl)c2)Oc2c(NC(=O)Nc3ccc4c(c3)OCO4)cccc2C1=O
[9]
  AC50: 2.61 µM (active)
